Source: PubChem BioAssay AID248 (DTP/NCI, 2004)
Values joined by “and” are separate entries in the source; they are usually repeats but may differ in a detail not shown here. Equal entries are not always repeated. Toxic doses and inconclusive results are not listed. Cut-off read from the data, not from the text of the source: active = T/C of 150% or more; inactive = T/C below 125%.

Test system: L1210 leukemia ip in BDF1 mice, survival T/C
Experiment: NCI In Vivo Anticancer Drug Screen. Data for tumor model L1210 Leukemia (intraperitoneal) in B6D2F1 (BDF1) mice
Settings: endpoint: mean survival time, higher = longer survival
Summary of the method: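 Ratio derived from survival: compound-dosed mice over vehicle-dosed mice, all bearing a transplantable tumor.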

Measured: T/C

O=C1NC(c2cccc3ccccc23)Nc2ccccc21 (centres undefined)
inactive: dose: 12.5 mg/kg/injection, schedule: Q01DX009 (oral), vehicle: Klucel (hydroxypropylcellulose) (HPC) 111 % of control | dose: 12.5 mg/kg/injection, schedule: Q01DX009 (oral), vehicle: methylcellulose (MC) 103 % of control and 109 % of control | dose: 16.0 mg/kg/injection, schedule: Q01DX009 (ip), vehicle: Klucel (hydroxypropylcellulose) (HPC) 100 % of control | dose: 16.0 mg/kg/injection, schedule: Q01DX009 (sc), vehicle: Klucel (hydroxypropylcellulose) (HPC) 98 % of control | dose: 16.0 mg/kg/injection, schedule: Q03HX008 (ip), vehicle: Klucel (hydroxypropylcellulose) (HPC) 109 % of control | dose: 16.0 mg/kg/injection, schedule: Q03HX016 (ip), vehicle: Klucel (hydroxypropylcellulose) (HPC) 104 % of control | dose: 16.0 mg/kg/injection, schedule: Q03HX024 (ip), vehicle: Klucel (hydroxypropylcellulose) (HPC) 102 % of control | dose: 32.0 mg/kg/injection, schedule: Q01DX009 (ip), vehicle: Klucel (hydroxypropylcellulose) (HPC) 98 % of control | dose: 32.0 mg/kg/injection, schedule: Q01DX009 (sc), vehicle: Klucel (hydroxypropylcellulose) (HPC) 102 % of control | dose: 40.0 mg/kg/injection, schedule: Q01DX009 (ip), vehicle: methylcellulose (MC) 110 % of control | dose: 40.0 mg/kg/injection, schedule: Q01DX009 (ip), vehicle: other 107 % of control | dose: 40.0 mg/kg/injection, schedule: Q01DX009 (oral), vehicle: Klucel (hydroxypropylcellulose) (HPC) 98 % of control and 100 % of control | dose: 40.0 mg/kg/injection, schedule: Q01DX009 (oral), vehicle: methylcellulose (MC) 110 % of control | dose: 50.0 mg/kg/injection, schedule: Q01DX009 (oral), vehicle: other 106 % of control | dose: 60.0 mg/kg/injection, schedule: Q01DX009 (oral), vehicle: Klucel (hydroxypropylcellulose) (HPC) 100 % of control and 104 % of control | dose: 60.0 mg/kg/injection, schedule: Q01DX009 (oral), vehicle: methylcellulose (MC) 103 % of control | dose: 62.5 mg/kg/injection, schedule: Q01DX005 (oral), vehicle: saline 97 % of control | dose: 62.5 mg/kg/injection, schedule: Q01DX009 (oral), vehicle: saline 97 % of control | dose: 62.5 mg/kg/injection, schedule: Q01DX009 (oral), vehicle: water 104 % of control | dose: 62.5 mg/kg/injection, schedule: Q04DX003 (oral), vehicle: saline 105 % of control | dose: 64.0 mg/kg/injection, schedule: Q01DX009 (ip), vehicle: Klucel (hydroxypropylcellulose) (HPC) 108 % of control | dose: 64.0 mg/kg/injection, schedule: Q01DX009 (sc), vehicle: Klucel (hydroxypropylcellulose) (HPC) 97 % of control | dose: 80.0 mg/kg/injection, schedule: Q01DX009 (ip), vehicle: methylcellulose (MC) 101 % of control | dose: 80.0 mg/kg/injection, schedule: Q01DX009 (oral), vehicle: Klucel (hydroxypropylcellulose) (HPC) 109 % of control | dose: 80.0 mg/kg/injection, schedule: Q01DX009 (oral), vehicle: methylcellulose (MC) 105 % of control and 110 % of control | dose: 100.0 mg/kg/injection, schedule: Q01DX009 (oral), vehicle: Klucel (hydroxypropylcellulose) (HPC) 100 % of control | dose: 100.0 mg/kg/injection, schedule: Q01DX009 (oral), vehicle: saline 104 % of control and 106 % of control | dose: 100.0 mg/kg/injection, schedule: Q04DX003 (ip), vehicle: other 103 % of control | dose: 100.0 mg/kg/injection, schedule: Q04DX003 (oral), vehicle: Klucel (hydroxypropylcellulose) (HPC) 98 % of control and 104 % of control | dose: 100.0 mg/kg/injection, schedule: Q04DX003 (oral), vehicle: methylcellulose (MC) 104 % of control and 107 % of control | dose: 100.0 mg/kg/injection, schedule: Q04DX003 (oral), vehicle: other 105 % of control | dose: 120.0 mg/kg/injection, schedule: Q01DX009 (oral), vehicle: Klucel (hydroxypropylcellulose) (HPC) 104 % of control | dose: 120.0 mg/kg/injection, schedule: Q01DX009 (oral), vehicle: methylcellulose (MC) 98 % of control | dose: 125.0 mg/kg/injection, schedule: Q01DX005 (oral), vehicle: saline 110 % of control | dose: 125.0 mg/kg/injection, schedule: Q01DX009 (oral), vehicle: Klucel (hydroxypropylcellulose) (HPC) 105 % of control | dose: 125.0 mg/kg/injection, schedule: Q01DX009 (oral), vehicle: saline 103 % of control | dose: 125.0 mg/kg/injection, schedule: Q04DX003 (oral), vehicle: saline 102 % of control | dose: 125.0 mg/kg/injection, schedule: Q04DX003 (oral), vehicle: water 106 % of control | dose: 125.0 mg/kg/injection, schedule: Q07DX002 (ip), vehicle: water 103 % of control | dose: 128.0 mg/kg/injection, schedule: Q01DX001 (ip), vehicle: Klucel (hydroxypropylcellulose) (HPC) 103 % of control | dose: 128.0 mg/kg/injection, schedule: Q01DX001 (sc), vehicle: Klucel (hydroxypropylcellulose) (HPC) 100 % of control | dose: 128.0 mg/kg/injection, schedule: Q01DX009 (ip), vehicle: Klucel (hydroxypropylcellulose) (HPC) 94 % of control | dose: 128.0 mg/kg/injection, schedule: Q01DX009 (sc), vehicle: Klucel (hydroxypropylcellulose) (HPC) 103 % of control | dose: 128.0 mg/kg/injection, schedule: Q04DX003 (ip), vehicle: Klucel (hydroxypropylcellulose) (HPC) 99 % of control | dose: 128.0 mg/kg/injection, schedule: Q08DX002 (ip), vehicle: Klucel (hydroxypropylcellulose) (HPC) 97 % of control | dose: 140.0 mg/kg/injection, schedule: Q01DX009 (ip), vehicle: other 104 % of control | dose: 140.0 mg/kg/injection, schedule: Q01DX009 (oral), vehicle: Klucel (hydroxypropylcellulose) (HPC) 104 % of control and 105 % of control | dose: 140.0 mg/kg/injection, schedule: Q01DX009 (oral), vehicle: methylcellulose (MC) 109 % of control and 111 % of control | dose: 150.0 mg/kg/injection, schedule: Q01DX009 (oral), vehicle: Klucel (hydroxypropylcellulose) (HPC) 107 % of control | dose: 150.0 mg/kg/injection, schedule: Q01DX009 (oral), vehicle: other 108 % of control | dose: 150.0 mg/kg/injection, schedule: Q01DX009 (oral), vehicle: saline 108 % of control | dose: 150.0 mg/kg/injection, schedule: Q04DX003 (ip), vehicle: other 98 % of control | dose: 150.0 mg/kg/injection, schedule: Q04DX003 (oral), vehicle: Klucel (hydroxypropylcellulose) (HPC) 107 % of control and 111 % of control | dose: 150.0 mg/kg/injection, schedule: Q04DX003 (oral), vehicle: methylcellulose (MC) 104 % of control and 105 % of control | dose: 175.0 mg/kg/injection, schedule: Q01DX009 (oral), vehicle: methylcellulose (MC) 105 % of control and 108 % of control | dose: 200.0 mg/kg/injection, schedule: Q04DX003 (ip), vehicle: other 96 % of control | dose: 200.0 mg/kg/injection, schedule: Q04DX003 (oral), vehicle: Klucel (hydroxypropylcellulose) (HPC) 95 % of control and 104 % of control | dose: 200.0 mg/kg/injection, schedule: Q04DX003 (oral), vehicle: methylcellulose (MC) 98 % of control and 104 % of control | dose: 200.0 mg/kg/injection, schedule: Q04DX003 (oral), vehicle: other 108 % of control | dose: 225.0 mg/kg/injection, schedule: Q01DX009 (oral), vehicle: methylcellulose (MC) 110 % of control | dose: 250.0 mg/kg/injection, schedule: Q01DX005 (oral), vehicle: saline 107 % of control | dose: 250.0 mg/kg/injection, schedule: Q01DX009 (oral), vehicle: saline 103 % of control | dose: 250.0 mg/kg/injection, schedule: Q04DX003 (ip), vehicle: Klucel (hydroxypropylcellulose) (HPC) 103 % of control | dose: 250.0 mg/kg/injection, schedule: Q04DX003 (oral), vehicle: Klucel (hydroxypropylcellulose) (HPC) 108 % of control | dose: 250.0 mg/kg/injection, schedule: Q04DX003 (oral), vehicle: methylcellulose (MC) 103 % of control and 104 % of control | dose: 250.0 mg/kg/injection, schedule: Q04DX003 (oral), vehicle: saline 105 % of control | dose: 250.0 mg/kg/injection, schedule: Q04DX003 (oral), vehicle: water 104 % of control | dose: 250.0 mg/kg/injection, schedule: Q07DX002 (ip), vehicle: water 97 % of control | dose: 256.0 mg/kg/injection, schedule: Q01DX001 (ip), vehicle: Klucel (hydroxypropylcellulose) (HPC) 103 % of control | dose: 256.0 mg/kg/injection, schedule: Q01DX001 (sc), vehicle: Klucel (hydroxypropylcellulose) (HPC) 101 % of control | dose: 256.0 mg/kg/injection, schedule: Q01DX009 (sc), vehicle: Klucel (hydroxypropylcellulose) (HPC) 94 % of control | dose: 256.0 mg/kg/injection, schedule: Q04DX003 (ip), vehicle: Klucel (hydroxypropylcellulose) (HPC) 111 % of control | dose: 256.0 mg/kg/injection, schedule: Q08DX002 (ip), vehicle: Klucel (hydroxypropylcellulose) (HPC) 111 % of control | dose: 300.0 mg/kg/injection, schedule: Q04DX003 (ip), vehicle: Klucel (hydroxypropylcellulose) (HPC) 94 % of control | dose: 300.0 mg/kg/injection, schedule: Q04DX003 (oral), vehicle: Klucel (hydroxypropylcellulose) (HPC) 109 % of control and 111 % of control | dose: 300.0 mg/kg/injection, schedule: Q04DX003 (oral), vehicle: methylcellulose (MC) 108 % of control | dose: 500.0 mg/kg/injection, schedule: Q01DX005 (oral), vehicle: saline 107 % of control | dose: 500.0 mg/kg/injection, schedule: Q01DX009 (oral), vehicle: saline 110 % of control | dose: 500.0 mg/kg/injection, schedule: Q04DX003 (oral), vehicle: saline 108 % of control | dose: 500.0 mg/kg/injection, schedule: Q04DX003 (oral), vehicle: water 107 % of control | dose: 512.0 mg/kg/injection, schedule: Q01DX001 (sc), vehicle: Klucel (hydroxypropylcellulose) (HPC) 102 % of control | dose: 1000.0 mg/kg/injection, schedule: Q01DX005 (oral), vehicle: saline 108 % of control | dose: 1000.0 mg/kg/injection, schedule: Q04DX003 (oral), vehicle: saline 105 % of control | dose: 1024.0 mg/kg/injection, schedule: Q01DX001 (sc), vehicle: Klucel (hydroxypropylcellulose) (HPC) 100 % of control
